Key:
[1] = biological target: serum amyloid P component (SAP) (Homo sapiens, UniProt P02743); assay: Inhibition of SAP binding to amyloid fibrils in vitro; conditions: in vitro inhibition of binding of SAP to amyloid fibrils, protocol of EP 0915088 page 10; read-out: IC50
From the text: A method for screening and testing inhibitors of serum amyloid P component (SAP) binding to amyloid fibrils in vitro was devised and used in collaboration with F Hoffmann-La Roche Ltd to identify a suitable lead molecule for drug development. A library of candidate compounds was screened accordingly. The subsequent collaborative medicinal chemistry programme led to synthesis of a family of dicarboxylic acid, pyrrolidone ring containing molecules, of which the most studied is (R)-1-[6-(R)-2-Carboxy-pyrrolidin-1-yl]-6-oxo-hexanoyl]pyrrolidine-2-carboxylic acid. This molecule and related compounds (EP-A-0915088) are modestly potent inhibitors of SAP binding to amyloid fibrils in vitro, with IC50 values around 0.5-1.0 μM.
Further studies determined that each of the following bis-D-Proline compounds were tested for their ability to deplete SAP in vivo as described above. Each of the compounds identified below successfully depleted SAP. In addition, certain of the compounds were further tested for in vitro inhibition of binding of SAP to amyloid fibrils in accordance with the protocol provided in EP 0915088 at page 10, as referenced above. The results are shown in the second column below, where applicable.

SAP [2] = biological target: SAP (Homo sapiens, UniProt P02743); conditions: known low molecular weight ligands; cited from earlier work
Sequence of SAP (Homo sapiens, UniProt P02743) (P02743 20-223): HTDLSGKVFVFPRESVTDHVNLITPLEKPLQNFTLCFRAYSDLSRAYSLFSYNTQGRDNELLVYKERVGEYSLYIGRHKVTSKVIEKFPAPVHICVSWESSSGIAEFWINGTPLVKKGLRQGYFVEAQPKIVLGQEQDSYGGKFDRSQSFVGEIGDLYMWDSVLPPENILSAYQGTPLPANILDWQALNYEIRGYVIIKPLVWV

SAP [3] = assay: SAP binding to experimentally induced amyloid deposits in mice; type: in vivo, mouse
From the text: The potency of (R)-1-[6-(R)-2-Carboxy-pyrrolidin-1-yl]-6-oxo-hexanoyl]pyrrolidine-2-carboxylic acid in vivo was initially considered to be consistent with its lower IC50 value in vitro. However the decameric assembly of pentameric SAP molecules, induced by the cross linking capacity of the palindromic drug, is an abnormal molecular configuration which, according to the present invention, will be recognised in vivo and promptly cleared from the circulation. This action of the drug, leading to massive depletion of SAP from the plasma, makes a critical contribution to removal of SAP from the amyloid deposits because the SAP in amyloid is derived from, and in equilibrium with, the plasma SAP pool.

Sequence of serum amyloid P component (SAP) (P02743 20-223): as above

SMILES	IC50 [1]	further results
Cc1c(OCC(=O)N2CCC[C@@H]2C(=O)O)cccc1OCC(=O)N1CCC[C@@H]1C(=O)O	0.5 µM	–
NCCOP(=O)(O)O [phosphoethanolamine]	–	Affinity of binding by SAP (SAP [2]): about millimolar
CC(CS)C(=O)N1CCC[C@@H]1C(=O)O (stereo partly drawn) [1-(3-Mercapto-2-methyl-1-oxopropyl)-D-proline]	–	Binding of SAP to experimentally induced amyloid deposits (SAP [3]): inhibits binding of SAP; Dissociation of SAP already bound in amyloid deposits (SAP [3]): dissociates SAP that is already bound in the deposits
CO[C@@H]1O[C@@H]2COC(C)(C(=O)O)O[C@@H]2[C@H](O)[C@H]1O (stereo partly drawn) [MOβDG, methyl 4,6-O-(1-carboxyethylidene)-β-D-galactopyranoside]	–	Affinity of binding by SAP (SAP [2]): about millimolar

Second part, led by results:

IC50 [1]	SMILES	further results
0.7 µM	O=C(O)[C@H]1CCCN1C(=O)c1ccc(C(=O)N2CCC[C@@H]2C(=O)O)cc1	–
0.4 µM	O=C(O)[C@H]1CCCN1C(=O)COc1ccccc1OCC(=O)N1CCC[C@@H]1C(=O)O	–
0.3 µM	O=C(O)[C@H]1CCCN1C(=O)COc1ccc(OCC(=O)N2CCC[C@@H]2C(=O)O)cc1	–
0.35 µM	O=C(O)[C@H]1CCCN1C(=O)Cc1ccc(CC(=O)N2CCC[C@@H]2C(=O)O)cc1	–
0.7 µM	O=C(O)[C@H]1CCCN1C(=O)Cc1cccc(CC(=O)N2CCC[C@@H]2C(=O)O)c1	–

— patent US8173694B2, “Therapeutic agent” (Pentraxin Therapeutics Limited, priority 2001, dated 2012)
